22 molecules from patent publication US20180072675A1, “ANTIMICROBIAL PYRIDINOHYDRAZIDE AND HYDRAZOMETHYLPYRIDINE-BASED AGENTS” (Board of Supervisors of Louisiana State University and …, priority 2015, published 2018) can be followed below.

In test [1] the test system is C. albicans clinical isolate 1 (TW1). Description: MIC80 fungal growth inhibition, clinical isolate TW1. It is filed as cell-based, Candida albicans. The following applies: Azole-susceptible, >80% growth inhibition, visual scoring; for MIC80: Candida albicans, read-out: MIC80 TW1. The protocol:
(§1) The antifungal activity of the pyridinohydrazide and hydrazomethylpyridine derivatives described in the s were evaluated in vitro using Candida albicans (ATCC Accession No. 10231) and Candida glabrata (ATCC Accession No. 48435). In addition, the compounds were evaluated for activity against two previously-described clinical isolates of C. albicans known to have developed azole-resistance. These isolates were obtained over a two year period from a single AIDS patient and the development of the azole-resistance mechanisms have been extensively characterized (White T C. Antimicrob. Agents Chemother. (1997) 41: 1482-1487). MIC assays were performed on the clinical isolates 1 and 17 (annotated TW1 and TW17, respectively), where isolate 1 was used as an azole-susceptible control and isolate 17 was considered azole-resistant. All assays were done in accordance with NCCLS reference documents (Clinical Laboratory and Standards Institute. Reference method for Broth Dilution Antifungal Susceptibility Testing of Yeasts: Approved Standard. M27-A3 2010; 28). The results of these screenings are summarized in Tables 1-9 (Examples 20-27) as the minimum concentrations that inhibited more than 80% of fungal growth (MIC80) as compared to positive controls containing 1% DMSO. Assays were performed in HEPES-buffered RPMI-1640 media. All MIC screens used a visual scoring method as opposed to spectroscopic analysis, due to the altered absorbance spectra of many of the compounds.

Test [2] concerns Candida glabrata (ATCC Accession No. 48435). Description: MIC80 fungal growth inhibition, C. glabrata ATCC 48435. It is filed as cell-based. To be noted: for MIC80: Nakaseomyces glabratus, ATCC48435, read-out: MIC80 C. glabrata ATCC No. 48435; for MIC80 / MIC80 C. glabrata ATCC No. 48435: Azole-resistant, >80% growth inhibition, visual scoring. The protocol:
as §1

The test system of test [3] is Candida albicans (ATCC Accession No. 10231). Description: MIC80 fungal growth inhibition, C. albicans ATCC 10231. To be noted: Azole-susceptible, >80% growth inhibition, visual scoring; for MIC80: Candida albicans, ATCC10231, read-out: MIC80 C. albicans ATCC No. 10231. It is filed as cell-based. The protocol:
as §1

The test system of test [4] is C. albicans clinical isolate 17 (TW17). Description: MIC80 fungal growth inhibition, clinical isolate TW17. It is filed as cell-based, Candida albicans. The following applies: Azole-resistant, >80% growth inhibition, visual scoring; for MIC80: Candida albicans, read-out: MIC80 TW17. How it is done:
as §1

In brackets after ≈: the same amount, converted by molar mass.

What is called MIC80 is the lowest concentration that inhibits either 80% of growth or 80% of the strains tested, depending on the study. `O=C(N/N=C/c1ccccc1O)c1ccccn1` [AR1, (E)-N′-(2-hydroxybenzylidene)picolinohydrazide]: the MIC80 in test [1] was found to be 62 µg/mL (≈ 257 µM); in test [2] it was 8 µg/mL (≈ 33.2 µM); in test [3], 16 µg/mL (≈ 66.3 µM).
Consider `COc1ccc(O)c(/C=N/NC(=O)c2ccccn2)c1` [AR3, (E)-N′-(2-Hydroxy-5-methoxybenzylidene)picolinohydrazide], for which the MIC80 in test [1] was determined as 8 µg/mL (≈ 29.5 µM); in test [2], 1 µg/mL (≈ 3.69 µM); in test [3], 4 µg/mL (≈ 14.7 µM); in test [4] it was 31 µg/mL (≈ 114 µM).
With `O=C(N/N=C/c1ccccc1O)c1cccnc1` [AR7], the MIC80 in test [1] is 4 µg/mL (≈ 16.6 µM); in test [2] it was 16 µg/mL (≈ 66.3 µM); in test [3] it was 4 µg/mL (≈ 16.6 µM); in test [4], 31 µg/mL (≈ 128 µM).
As for `COc1ccc(O)c(/C=N/NC(=O)c2cccnc2)c1` [AR9], the “MIC80 TW1” value in test [1] is 16 µg/mL (≈ 59 µM). The “MIC80 C. glabrata ATCC No. 48435” value in test [2] was found to be 4 µg/mL (≈ 14.7 µM). For the same molecule, the “MIC80 C. albicans ATCC No. 10231” value in test [3] is 62 µg/mL (≈ 229 µM). The “MIC80 TW17” value in test [4] amounted to 4 µg/mL (≈ 14.7 µM).
As to `O=C(N/N=C/c1cc(Cl)ccc1O)c1cccnc1` [AR10], the MIC80 in test [1] came to 8 µg/mL (≈ 29 µM); in test [2] it was 8 µg/mL (≈ 29 µM); in test [3] it was 4 µg/mL (≈ 14.5 µM); in test [4], 62 µg/mL (≈ 225 µM).
In the case of `O=C(NN=Cc1cc(Br)ccc1O)c1cccnc1` [AR11], in test [1], the “MIC80 TW1” value is 8 µg/mL (≈ 25 µM). In test [2], the “MIC80 C. glabrata ATCC No. 48435” value was found to be 16 µg/mL (≈ 50 µM). Further, the “MIC80 C. albicans ATCC No. 10231” value in test [3] stood at 4 µg/mL (≈ 12.5 µM). Also, the “MIC80 TW17” value in test [4] was 16 µg/mL (≈ 50 µM).
Regarding `O=C(NN=Cc1ccccc1O)c1ccncc1` [AR13], the “MIC80 TW1” value in test [1] was found to be 4 µg/mL (≈ 16.6 µM). In addition, the “MIC80 C. glabrata ATCC No. 48435” value in test [2] amounted to 16 µg/mL (≈ 66.3 µM). Moreover, the “MIC80 C. albicans ATCC No. 10231” value in test [3] came to 8 µg/mL (≈ 33.2 µM). Also, the “MIC80 TW17” value in test [4] is 31 µg/mL (≈ 128 µM).
For `Cc1ccc(O)c(C=NNC(=O)c2ccncc2)c1` [AR14], the “MIC80 TW1” value in test [1] was found to be 16 µg/mL (≈ 62.7 µM). In test [2], the “MIC80 C. glabrata ATCC No. 48435” value worked out at 31 µg/mL (≈ 121 µM). For the same molecule, in test [3], the “MIC80 C. albicans ATCC No. 10231” value came to 4 µg/mL (≈ 15.7 µM). Further, in test [4], the “MIC80 TW17” value was 31 µg/mL (≈ 121 µM).
Turning to `COc1ccc(O)c(/C=N/NC(=O)c2ccncc2)c1` [AR15], the MIC80 in test [1] came to 16 µg/mL (≈ 59 µM); in test [2], 4 µg/mL (≈ 14.7 µM); in test [3], 4 µg/mL (≈ 14.7 µM); in test [4] it was 16 µg/mL (≈ 59 µM).
As to `O=C(NN=Cc1cc(Cl)ccc1O)c1ccncc1` [AR16], in test [1], the “MIC80 TW1” value amounted to 16 µg/mL (≈ 58 µM). In addition, in test [2], the “MIC80 C. glabrata ATCC No. 48435” value was determined as 16 µg/mL (≈ 58 µM). Besides, in test [3], the “MIC80 C. albicans ATCC No. 10231” value was determined as 31 µg/mL (≈ 112 µM). Moreover, in test [4], the “MIC80 TW17” value was found to be 125 µg/mL (≈ 453 µM).
For the molecule `O=C(NN=Cc1cc(Br)ccc1O)c1ccncc1` [AR17], the “MIC80 TW1” value in test [1] came to 16 µg/mL (≈ 50 µM). For the same molecule, in test [2], the “MIC80 C. glabrata ATCC No. 48435” value turned out to be 64 µg/mL (≈ 200 µM). The “MIC80 C. albicans ATCC No. 10231” value in test [3] stood at 16 µg/mL (≈ 50 µM). For the same molecule, in test [4], the “MIC80 TW17” value stood at 125 µg/mL (≈ 390 µM).
For `Cc1ccc(O)c(/C=N/NC(=O)c2cccnc2O)c1` [AR20], the MIC80 in test [2] worked out at 2 µg/mL (≈ 7.37 µM).
Turning to `O=C(NN=Cc1cc(Br)ccc1O)c1cccnc1O` [AR22], in test [2], the “potency against Candida glabrata (in words)” value is listed as “one of the most potent compounds” and the “MIC80 C. glabrata ATCC No. 48435” value was found to be 0.5 µg/mL (≈ 1.49 µM).
Turning to `O=C(NN=Cc1ccccc1O)c1ccc[n+]([O-])c1` [AR23], the “MIC80 TW1” value in test [1] was found to be 31 µg/mL (≈ 121 µM). Also, the “MIC80 C. glabrata ATCC No. 48435” value in test [2] turned out to be 16 µg/mL (≈ 62.2 µM). Moreover, the “MIC80 C. albicans ATCC No. 10231” value in test [3] was 31 µg/mL (≈ 121 µM). The “MIC80 TW17” value in test [4] was 31 µg/mL (≈ 121 µM).
`Cc1ccc(O)c(C=NNC(=O)c2ccc[n+]([O-])c2)c1` [AR24]: in test [1], the “MIC80 TW1” value came to 16 µg/mL (≈ 59 µM). In test [2], the “MIC80 C. glabrata ATCC No. 48435” value came out at 31 µg/mL (≈ 114 µM). In test [3], the “MIC80 C. albicans ATCC No. 10231” value came out at 16 µg/mL (≈ 59 µM). In addition, the “MIC80 TW17” value in test [4] came out at 16 µg/mL (≈ 59 µM).
With `COc1ccc(O)c(/C=N/NC(=O)c2ccc[n+]([O-])c2)c1` [AR25], the MIC80 amounted to 62 µg/mL (≈ 216 µM) in test [1], 4 µg/mL (≈ 13.9 µM) in test [2], 16 µg/mL (≈ 55.7 µM) in test [3] and 31 µg/mL (≈ 108 µM) in test [4].
Take `O=C(N/N=C/c1cc(Cl)ccc1O)c1ccc[n+]([O-])c1` [AR26]: the MIC80 came to 31 µg/mL (≈ 106 µM) in test [1], 4 µg/mL (≈ 13.7 µM) in test [2], 16 µg/mL (≈ 54.9 µM) in test [3] and 31 µg/mL (≈ 106 µM) in test [4].
As for `O=C(NN=Cc1ccccn1)c1ccccc1` [AR31], the “MIC80 TW1” value in test [1] is 31 µg/mL (≈ 138 µM). For the same molecule, the “MIC80 C. glabrata ATCC No. 48435” value in test [2] was determined as 62 µg/mL (≈ 275 µM). Also, the “MIC80 C. albicans ATCC No. 10231” value in test [3] amounted to 62 µg/mL (≈ 275 µM). The “MIC80 TW17” value in test [4] amounted to 62 µg/mL (≈ 275 µM).
For `O=C(NN=Cc1ccccn1)c1ccccc1O` [AR32], in test [1], the “MIC80 TW1” value amounted to 31 µg/mL (≈ 128 µM). Moreover, in test [2], the “MIC80 C. glabrata ATCC No. 48435” value amounted to 4 µg/mL (≈ 16.6 µM). The “MIC80 C. albicans ATCC No. 10231” value in test [3] was 31 µg/mL (≈ 128 µM). Besides, the “MIC80 TW17” value in test [4] came out at 62 µg/mL (≈ 257 µM).
As to `O=C(NN=Cc1ccccn1)c1cccnc1` [AR35], in test [1], the “MIC80 TW1” value was determined as 62 µg/mL (≈ 274 µM). For the same molecule, the “MIC80 C. glabrata ATCC No. 48435” value in test [2] was 125 µg/mL (≈ 553 µM). For the same molecule, the “MIC80 C. albicans ATCC No. 10231” value in test [3] was determined as 125 µg/mL (≈ 553 µM). Also, in test [4], the “MIC80 TW17” value came out at 62 µg/mL (≈ 274 µM).
Turning to `O=C(NN=Cc1ccccn1)c1ccncc1` [AR36], the “MIC80 TW1” value in test [1] stood at 62 µg/mL (≈ 274 µM). Besides, in test [2], the “MIC80 C. glabrata ATCC No. 48435” value came to 125 µg/mL (≈ 553 µM). Moreover, the “MIC80 C. albicans ATCC No. 10231” value in test [3] is 125 µg/mL (≈ 553 µM). Moreover, in test [4], the “MIC80 TW17” value turned out to be 125 µg/mL (≈ 553 µM).
On to `O=C(NN=Cc1ccccn1)c1ccc[n+]([O-])c1` [AR38], for which the “MIC80 TW1” value in test [1] was 62 µg/mL (≈ 256 µM). In addition, in test [2], the “MIC80 C. glabrata ATCC No. 48435” value came out at 125 µg/mL (≈ 516 µM). For the same molecule, in test [3], the “MIC80 C. albicans ATCC No. 10231” value worked out at 125 µg/mL (≈ 516 µM). Further, the “MIC80 TW17” value in test [4] was 125 µg/mL (≈ 516 µM).
